These results are taken from patent US20110027185A1, “Methods of Screening for Anti-Angiogenic Compounds” (priority 2007, published 2011).

Assay [1] concerns HUVEC. As to the kind of experiment: HUVEC growth inhibition assay (NCI). To be noted: 72 h, crystal violet. It is filed as cell-based, human. Here is the method:
Angiogenesis assays were provided by the NCI, details of the assay protocols are given below. In each assays TNP-470 and paclitaxel (Taxol®) were used as reference compounds. HUVEC (1.5×10^3) were plated in a 96-well plate in 100 μL of EBM-2 (Clonetic #CC3162). […] On day 0, one plate was stained with 0.5% crystal violet in 20% methanol for 10 minutes, rinsed with water, and air-dried. The remaining plates were incubated for 72 h at 37° C. After 72 h, plates were stained with 0.5% crystal violet in 20% methanol, rinsed with water and air-dried. The stain was eluted with 1:1 solution of ethanol:0.1 M sodium citrate (including day 0 plate), and absorbance was measured at 540 nm with an ELISA reader (Dynatech Laboratories). Day 0 absorbance was subtracted from the 72 h plates and data was plotted as percentage of control proliferation (vehicle treated cells).

Assay [2] deals with HUVEC. As to the kind of experiment: HUVEC cell migration (chemotaxis) assay, Boyden chamber (NCI). It is filed as cell-based, human. To be noted: 5 h. Here is the method: Angiogenesis assays were provided by the NCI, details of the assay protocols are given below. In each assays TNP-470 and paclitaxel (Taxol®) were used as reference compounds. Migration was assessed using the 48-well Boyden chamber and 8 μm pore size collagen-coated (10 μg/mL rat tail collagen; Collaborative Laboratories) polycarbonate filters (Osmonics, Inc.). The bottom chamber wells received 27-29 μL of DMEM medium alone (baseline) or medium containing chemo-attractant (bFGF, VEGF or Swiss 3T3 cell conditioned medium). The top chambers received 45 μL of HUVEC cell suspension (1×10^6 cells/mL) prepared in DMEM+1% BSA with or without test compound. After 5 h incubation at 37° C., the membrane was rinsed in PBS, fixed and stained in Diff-Quick solutions. The filter was placed on a glass slide with the migrated cells facing down and cells on top were removed using a Kimwipe. The testing was performed in 4-6 replicates and five fields were counted from each well. Negative, unstimulated, control values were subtracted from stimulated control and drug treated values and data was plotted as mean migrated cell±S.D. The IC50 was calculated from the plotted data.

Assay [3] relates to HUVEC. The experiment in a line: HUVEC cord formation assay on matrigel (NCI). It is filed as cell-based, human. The note with it: 24 h. How it is done:
Angiogenesis assays were provided by the NCI, details of the assay protocols are given below. In each assays TNP-470 and paclitaxel (Taxol®) were used as reference compounds. Matrigel (60 μL of 10 mg/mL; Collaborative Lab #35423) was placed in each well of an ice-cold 96-well plate. The plate was allowed to sit at room temperature for 15 minutes then it was incubated at 37° C. for 30 minutes to permit the matrigel to polymerize. In the mean time, HUVEC were prepared in EGM-2 (Clonetic #CC3162) at a concentration of 2×10^5 cells/mL. […] The cells (500 μL) and the drug at 2 times concentration (500 μL) were mixed and 200 μL of this suspension was placed in duplicate on the polymerized matrigel. After 24 h incubation, triplicate pictures were taken for each concentration using a Bioquant Image Analysis system. Drug effect (IC50) is assessed compared to untreated controls by measuring the length of cords formed and number of junctions.

The test system of assay [4] is endothelial cell proliferation and endothelial capillary formation. The note with it: cited from earlier work.
Assay [5] relates to mouse colon adenocarcinoma cells. To be noted: subtoxic dose, colon 38 spleen liver model; cited from earlier work.
In assay [6] the test system is Lewis lung adenocarcinoma. The note with it: rats, intraperitoneal and per os, subtoxic doses; cited from earlier work.
Another assay addresses T1, FBP21 (Homo sapiens, UniProt O75554).
T1 construct: encode 99 amino acids in frame with the phage coat protein of which a segment of 83 residues share 100% homology with FBP21; purchased Novagen; host or cells: T7 phage amplified in E. coli BLT5403
T1 sequence (O75554 with tags, fused parts or gaps): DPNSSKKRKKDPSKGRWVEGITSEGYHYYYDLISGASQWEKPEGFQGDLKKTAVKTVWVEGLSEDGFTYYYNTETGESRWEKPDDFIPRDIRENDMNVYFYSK
As to the kind of experiment: Phage display biopanning with biotinylated bait, Human Colon Tumour Library. The assay is classed as binding. The note with it: SDS and E. coli elution. How it is done: Streptavidin wells were incubated with 1 μM biotinylated probe at 4° C. overnight to prepare the wells for biopanning. After incubation, unbound biotinylated probe was removed from the well by washing with phosphate buffered saline (PBS). Wells were then blocked with blocking solution (3% skimmed milk in PBS) for at least one hour at room temperature. Blocked wells were then briefly washed with PBS and were ready for biopanning use. […] In the first round of biopanning, 0.15 mL of amplified phage library was added to an empty streptavidin coated well and incubated at room temperature for at least 1 hour. This step was included to deselect any phage displaying streptavidin binding proteins. After incubation, the phage were removed from the well and mixed with 50 μL 4× blocking solution (12% skimmed milk in PBS) and incubated at room temperature for at least one hour. 0.125 mL of blocked phage library was added to each pre-prepared biotinylated well and incubated at room temperature for at least one hour. […] After incubation, unbound phage were removed from the well with wash solution. The wash solution was varied depending on the round of biopanning. For first round of biopanning PBS1 was used. For subsequent rounds the stringency of the wash was increased by using sequentially PBS2, PBS3 and PBS4 (see Table I). […]

`CO[C@@H]1[C@H](OC(=O)NC(=O)CCl)CC[C@]2(CO2)[C@H]1[C@@]1(C)O[C@@H]1CC=C(C)C` [TNP470]: the IC50 (usually the concentration that gives 50% inhibition) is 3.16 ± 0.82 nM in the assay with HUVEC [1] (Homo sapiens), 500 nM in the assay with HUVEC [2] (Homo sapiens) and 1000 nM in the assay on HUVEC [3] (Homo sapiens).

As to `CC(=O)O[C@H]1C(=O)[C@@]2(C)[C@H]([C@H](OC(=O)c3ccccc3)[C@]3(O)C[C@H](OC(=O)[C@H](O)[C@@H](NC(=O)c4ccccc4)c4ccccc4)C(C)=C1C3(C)C)[C@]1(OC(C)=O)CO[C@@H]1C[C@@H]2O` [Taxol, paclitaxel], the half-maximal inhibitory concentration (IC50) worked out at 1.65 ± 0.12 nM in the assay with HUVEC [1] (Homo sapiens), 100 nM in the assay on HUVEC [2] (Homo sapiens) and 50 nM with HUVEC [3] (Homo sapiens).

On to `CC1CC(C)CC(C)C(O)C(C#N)=CC=CCC(C2CCCC2C(=O)OCCc2ccccn2)OC(=O)CC(O)C(C)C1` (stereo not shown) [borrelidin-(2-pyridyl)-ethyl ester], for which the “selectivity index, capillary formation inhibitory activity versus cell proliferation with respect to borrelidin” value in assay [4] is 7.5 fold.

`CC1CC(C)CC(C)C(O)CC(=O)OC(C2CCCC2C(=O)NCc2cccnc2)C(C#N)=CC=CCC(O)C(C)C1` (stereo not shown) [borrelidin-(3-picolylamide)]: the “metastasis-forming ability of mouse colon adenocarcinoma cells transplanted into mouse spleen” value in assay [5] was “considerably decreased”. Moreover, the increase of micrometastases entry in assay [6] is recorded as “inhibit very considerably”.

Regarding `C[C@@H]1C[C@H](C)C[C@H](C)[C@@H](O)CC(=O)O[C@H]([C@@H]2CCC[C@H]2C(=O)NCCN2CCOCC2)C/C=C/C=C(/C#N)[C@H](O)[C@@H](C)C1` [borrelidin-morpholinoethyl amide], the “selectivity index, capillary formation inhibitory activity versus cell proliferation with respect to borrelidin” value in assay [4] is 6 fold.

`C[C@@H]1C[C@H](C)C[C@H](C)[C@@H](O)CC(=O)O[C@H]([C@@H]2CCC[C@H]2C(=O)OCCN2CCOCC2)C/C=C/C=C(/C#N)[C@H](O)[C@@H](C)C1` [borrelidin-morpholinoethyl ester]: the “selectivity index, capillary formation inhibitory activity versus cell proliferation with respect to borrelidin” value in assay [4] is 60 fold.

As for borrelidin-amide, in assay [4], the “selectivity index, capillary formation inhibitory activity versus cell proliferation with respect to borrelidin” value was 37 fold.

For the compound pre-borrelidin, the IC50 is 2380 nM in the assay on HUVEC [1], 461 nM in the assay with HUVEC [2] and greater than 30000 nM in the assay with HUVEC [3]. Further, the “identification of FBP21 fragment by biopanning (binding)” value on FBP21 is recorded as “never identified”.
